Laboratory results as given in patent publication US6908745B2, “Gamma sterilizable culture medium for the identification of yeasts and fungi” (Biotest AG, priority 2001, dated 2005).

System: bacteria
Assay: Antibacterial effect of antibiotics after γ-radiation
Details: γ-radiation with 25 kGray
Protocol: In the pharmaceuticals industry are sought γ-sterilized media for use in clean room areas and isolators. These clean room areas must be monitored for microbial contamination, and the product (that is, the microbiological nutrient medium) itself, with which this monitoring is carried out, should not introduce any contamination, but be sterile. The microbiological media are not completely sterile after autoclaving and filling into, for example, Petri dishes or other agar carriers, but have contamination rates in the order of magnitude of 0.1 to approx. 1%. Only as a result of an additional γ-sterilization (or β-sterilization) with high-energy radiation are killed the residual existing contaminations and a sterile product is obtained. However, many antibiotics are destroyed as a result of the γ-sterilization, so that afterward in selective media for yeasts and fungi whose selectivity is based on the addition of antibiotics, this selectivity no longer exists.

Molecule	antibacterial effect after γ-radiation
O=C(N[C@H](CO)[C@H](O)c1ccc([N+](=O)[O-])cc1)C(Cl)Cl [chloramphenicol]	completely destroyed
penicillin	essentially reduced
